Blank lines part the entries; values can stand above or below the molecule they belong to. Activity calls are given as the source filed them. The rule behind the calls is not given here.
Legend:
L02 = assay: Cytotoxicity against human L02 cells measured after 48 hrs by MTT assay; type: cell-based; conditions: L02, 48 h
A549 [1] = assay: Antiproliferative activity against human A549 cells measured after 48 hrs in presence of NQO1 inhibitor dicoumarol by MTT assay; type: functional, cell-based; conditions: A549, 48 h
HepG2 [2] = assay: Antiproliferative activity against human HepG2 cells measured after 48 hrs by MTT assay; conditions: HepG2, 48 h
A549 [3] = assay: cells; conditions: Homo sapiens, A549, 48 h
NCI-H596 [4] = assay: Antiproliferative activity against human NCI-H596 cells measured after 48 hrs by MTT assay; type: functional, cell-based; conditions: NCI-H596, 48 h
[5] = molecular target: NAD(P)H dehydrogenase [quinone] 1 (Homo sapiens, UniProt P15559); assay: Substrate activity at recombinant human C-terminal His-tagged NQO1 (1 to 274 residues) expressed in Escherichia coli assessed as metabolic rate by measuring NADPH oxidation per micromol protein at 10 mmol/L measured at 5 secs interval for 1 min by UV-Visible Spectrophotometric method; type: ADME
in vitro = conditions: human, L02 cells and A549 cells
HepG2 [6] = assay: Induction of apoptosis in human HepG2 cells assessed as viable cells at 1.6 uM measured after 24 hrs by Annexin V-FITC/propidium iodide staining based flow cytometry (reference value: 94.73%); type: functional; conditions: read-out: Activity
NCI-H596 [7] = assay: Induction of apoptosis in human NCI-H596 cells assessed as early apoptotic cells at 1.6 uM measured after 24 hrs by Annexin V-FITC/propidium iodide staining based flow cytometry (reference value: 2.28%); type: functional
HepG2 [8] = assay: Induction of apoptosis in human HepG2 cells assessed as viable cells at 3.2 uM measured after 24 hrs by Annexin V-FITC/propidium iodide staining based flow cytometry (reference value: 94.73%); type: functional; conditions: read-out: Activity
NCI-H596 [9] = assay: Induction of apoptosis in human NCI-H596 cells assessed as late apoptotic cells at 1.6 uM measured after 24 hrs by Annexin V-FITC/propidium iodide staining based flow cytometry (reference value: 1.91%); type: functional
HepG2 [10] = assay: Antitumor activity against human HepG2 cells xenografted in BALB/c athymic nude mouse assessed as tumor growth inhibition at 20 mg/kg, iv administered at 2 days interval 19 days by caliper method relative to control; type: functional; conditions: 456 h, time 19 day, read-out: TGI
HepG2 [11] = assay: Induction of apoptosis in human HepG2 cells assessed as late apoptotic cells at 3.2 uM measured after 24 hrs by Annexin V-FITC/propidium iodide staining based flow cytometry (reference value: 2.27%); type: functional
HepG2 [12] = assay: Induction of apoptosis in human HepG2 cells assessed as early apoptotic cells at 3.2 uM measured after 24 hrs by Annexin V-FITC/propidium iodide staining based flow cytometry (reference value: 2.65%); type: functional
HepG2 [13] = assay: Cell cycle arrest in human HepG2 cells assessed as accumulation at G0/G1 phase at 2.4 uM measured after 24 hrs by propidium iodide staining based flow cytometry analysis (reference value: 46.76%); type: functional
HepG2 [14] = assay: Induction of apoptosis in human HepG2 cells assessed as early apoptotic cells at 0.8 uM measured after 24 hrs by Annexin V-FITC/propidium iodide staining based flow cytometry (reference value: 2.65%); type: functional
HepG2 [15] = assay: Induction of apoptosis in human HepG2 cells assessed as necrotic cells at 0.8 uM measured after 24 hrs by Annexin V-FITC/propidium iodide staining based flow cytometry (reference value: 0.35%); type: functional
NCI-H596 [16] = assay: Induction of apoptosis in human NCI-H596 cells assessed as necrotic cells at 1.6 uM measured after 24 hrs by Annexin V-FITC/propidium iodide staining based flow cytometry (reference value: 0.64%); type: functional
HepG2 [17] = assay: Induction of apoptosis in human HepG2 cells assessed as necrotic cells at 3.2 uM measured after 24 hrs by Annexin V-FITC/propidium iodide staining based flow cytometry (reference value: 0.35%); type: functional
HepG2 [18] = assay: Cell cycle arrest in human HepG2 cells assessed as accumulation at G0/G1 phase at 1.2 uM measured after 24 hrs by propidium iodide staining based flow cytometry analysis (reference value: 46.76%); type: functional
HepG2 [19] = assay: Cell cycle arrest in human HepG2 cells assessed as accumulation at G0/G1 phase at 0.6 uM measured after 24 hrs by propidium iodide staining based flow cytometry analysis (reference value: 46.76%); type: functional
HepG2 [20] = assay: Induction of apoptosis in human HepG2 cells assessed as viable cells at 0.8 uM measured after 24 hrs by Annexin V-FITC/propidium iodide staining based flow cytometry (reference value: 94.73%); type: functional; conditions: read-out: Activity
NCI-H596 [21] = assay: Induction of reactive oxygen species production in human NCI-H596 cells at 5 uM measured after 5 hrs by DCFH-DA staining based flow cytometry; type: functional, cell-based
HepG2 [22] = assay: Induction of apoptosis in human HepG2 cells assessed as necrotic cells at 1.6 uM measured after 24 hrs by Annexin V-FITC/propidium iodide staining based flow cytometry (reference value: 0.35%); type: functional
HepG2 [23] = assay: Induction of reactive oxygen species production in human HepG2 cells at 5 uM measured after 5 hrs by DCFH-DA staining based flow cytometry; type: functional, cell-based
HepG2 [24] = assay: Induction of apoptosis in human HepG2 cells assessed as late apoptotic cells at 1.6 uM measured after 24 hrs by Annexin V-FITC/propidium iodide staining based flow cytometry (reference value: 2.27%); type: functional
NCI-H596 [25] = assay: Induction of apoptosis in human NCI-H596 cells assessed as viable cells at 1.6 uM measured after 24 hrs by Annexin V-FITC/propidium iodide staining based flow cytometry (reference value: 95.17%); type: functional; conditions: read-out: Activity
HepG2 [26] = assay: Induction of apoptosis in human HepG2 cells assessed as late apoptotic cells at 0.8 uM measured after 24 hrs by Annexin V-FITC/propidium iodide staining based flow cytometry (reference value: 2.27%); type: functional
HepG2 [27] = assay: Induction of apoptosis in human HepG2 cells assessed as early apoptotic cells at 1.6 uM measured after 24 hrs by Annexin V-FITC/propidium iodide staining based flow cytometry (reference value: 2.65%); type: functional
[28] = Toxicity in human HepG2 cells xenografted BALB/c athymic nude mouse assessed as change in body weight at 20 mg/kg, iv administered at 2 days interval 19 days; type: organism-based; conditions: in vivo, 456 h, time 19 day

IC50 (A549 [1]): 1430 nM
IC50 (HepG2 [2]): 1690 nM
IC50 (A549 [3]): 960 nM
IC50 (NCI-H596 [4]): 17.1 µM
Drug metabolism [5]: 941 micromol/min/micromol protein
Structure (SMILES): O=C1C(=O)c2ccccc2C2=C1C(c1cc(O)cc(Cl)c1)NC(=S)N2 (stereo not given)
IC50 (L02): 4580 nM
selectivity ratio (in vitro): 4.77

IC50 (A549 [1]): 1590 nM
IC50 (HepG2 [2]): 1340 nM
IC50 (A549 [3]): 870 nM
IC50 (NCI-H596 [4]): 1.58 µM
Drug metabolism [5]: 1513 micromol/min/micromol protein
Structure (SMILES): O=C1C(=O)c2cc(F)ccc2C2=C1C(c1cccc(O)c1)NC(=S)N2 (stereo not given)
IC50 (L02): 1490 nM
selectivity ratio (in vitro): 1.71

IC50 (A549 [1]): 1190 nM
IC50 (HepG2 [2]): 1570 nM
IC50 (A549 [3]): 300 nM
IC50 (NCI-H596 [4]): 2.2 µM
Drug metabolism [5]: 997 micromol/min/micromol protein
Structure (SMILES): COc1ccc2c(c1)C1=C(C(=O)C2=O)C(c2cccc(O)c2)NC(=S)N1 (stereo not given)
IC50 (L02): 1750 nM
selectivity ratio (in vitro): 5.83

IC50 (A549 [1]): 3000 nM
IC50 (HepG2 [2]): 3200 nM
IC50 (A549 [3]): 2420 nM
IC50 (NCI-H596 [4]): 7.6 µM
Drug metabolism [5]: 852 micromol/min/micromol protein
Structure (SMILES): O=C1C(=O)c2ccccc2C2=C1C(c1cc(O)cc(Br)c1)NC(=S)N2 (stereo not given)
IC50 (L02): 3050 nM
selectivity ratio (in vitro): 1.26

More lines, now with the values behind:

Structure (SMILES): O=C1C(=O)c2ccccc2C2=C1C(c1cc(O)ccc1Br)NC(=S)N2 (stereo not given)
IC50 (L02): 1510 nM
IC50 (A549 [1]): 1550 nM
IC50 (HepG2 [2]): 1310 nM
IC50 (A549 [3]): 480 nM
IC50 (NCI-H596 [4]): 1.61 µM
Drug metabolism [5]: 1083 micromol/min/micromol protein
selectivity ratio (in vitro): 3.15

Structure (SMILES): CCOC(=O)C1=C(C)NC(=S)NC1c1cccc(O)c1 (stereo not given) [MONASTROL]
Drug metabolism [5]: Metabolite_Notdetected

Structure (SMILES): O=C1C(=O)c2ccccc2C2=C1C(c1cc(O)ccc1F)NC(=S)N2 (stereo not given)
IC50 (L02): 1560 nM
IC50 (A549 [1]): 1510 nM
IC50 (HepG2 [2]): 1190 nM
IC50 (A549 [3]): 980 nM
IC50 (NCI-H596 [4]): 7.69 µM
Drug metabolism [5]: 528 micromol/min/micromol protein
selectivity ratio (in vitro): 1.59

Structure (SMILES): COc1ccc2c(c1)C(=O)C(=O)C1=C2NC(=S)NC1c1cccc(O)c1 (stereo not given)
IC50 (L02): 21000 nM
viability at 1.6 µM (HepG2 [6]): 78.1%
IC50 (A549 [1]): 4550 nM
IC50 (HepG2 [2]): 1600 nM
Activity (NCI-H596 [7]): 4.22%
viability at 3.2 µM (HepG2 [8]): 71.1%
Activity (NCI-H596 [9]): 4.81%
IC50 (A549 [3]): 720 nM
inhibition in vivo at 20 mg/kg (HepG2 [10]): 58.1%
Activity (HepG2 [11]): 15.3%
IC50 (NCI-H596 [4]): 7.07 µM
Drug metabolism [5]: 1530 micromol/min/micromol protein
Activity (HepG2 [12]): 12.67%
Activity (HepG2 [13]): 53%
Activity (HepG2 [14]): 7.21%
Activity (HepG2 [15]): 0.52%
Activity (NCI-H596 [16]): 0.14%
Activity (HepG2 [17]): 0.95%
Activity (HepG2 [18]): 49.6%
Activity (HepG2 [19]): 48.54%
viability at 0.8 µM (HepG2 [20]): 83.7%
Activity (NCI-H596 [21]): Active
Activity (HepG2 [22]): 0.53%
Activity (HepG2 [23]): Active
Activity (HepG2 [24]): 11.48%
viability at 1.6 µM (NCI-H596 [25]): 90.8%
Activity (HepG2 [26]): 8.52%
Activity (HepG2 [27]): 9.89%
selectivity ratio (in vitro): 29.1
Activity [28]: Non-Toxic

Structure (SMILES): COc1ccc2c(c1)C1=C(C(=O)C2=O)C(c2cc(C)cc(O)c2)NC(=S)N1 (stereo not given)
IC50 (L02): 1860 nM
IC50 (A549 [1]): 1500 nM
IC50 (HepG2 [2]): 1700 nM
IC50 (A549 [3]): 320 nM
IC50 (NCI-H596 [4]): 2.52 µM
Drug metabolism [5]: 1427 micromol/min/micromol protein
selectivity ratio (in vitro): 5.81
